# Test results from patent publication US20090196826A1, “COMPOSITIONS AND METHODS OF MAKING NON-SPHERICAL MICRO- AND NANO-PARTICLES” (BOARD OF REGENTS, THE UNIVERSITY OF TEXAS SYSTEM, priority 2007, published 2009).
# System: subcutaneous A549 lung tumor xenograft
# Assay: antitumor efficacy in subcutaneous A549 lung tumor xenograft (caliper)
# Type: in vivo, mice
# Settings: equivalent DOX dose 4 mg/kg i.v. at day 0, 2, 5 and 10
# Description: In a separate study, we have systematically investigated the antitumor efficacy of cRGD-encoded micelles in a subcutaneous A549 lung tumor xenograft study. Tumor size was measured by a caliper and normalized to that at day 0 before treatment. In this study, animals were treated with an equivalent DOX dose at 4 mg/kg for free drug, 0 and 16% cRGD-DOX-SPIO micelles, and coadministration of 16% cRGD-DOX-SPIO micelles with free cRGD peptides ([…]). Free drug or drug-encapsulated micelles were injected i.v. (bolus) into the tail vein at day 0, 2, 5 and 10. The control group was injected with phosphate buffer saline (PBS). Three animals were used for each sample group.
smiles,measurement,value
"COc1cccc2c1C(=O)c1c(O)c3c(c(O)c1C2=O)C[C@@](O)(C(=O)CO)C[C@@H]3O[C@H]1C[C@H](N)[C@H](O)[C@H](C)O1 [free DOX, doxorubicin]",tumor size change,did not change dramatically
